This experiment deals with LMPTP-A (Low Molecular Weight Protein Tyrosine Phosphatase-A) enzyme (Homo sapiens (Human), UniProt P24666). Briefly: LMPTP primary screening / LMPTP (OMFP) enzyme inhibition assay, fluorescence intensity. Type of experiment: biochemical. The settings on record: LMPTP-A, OMFP substrate, method of Example 2; read-out: IC50. In outline: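 0.625 nM LMPTP-A with 400 μM OMFP substrate in 50 mM Bis-Tris pH 6.0, 1 mM DTT, 0.01% Triton X-100, […]. Compounds at 20 μM final. Incubated 50 min at room temperature in the dark; fluorescence intensity read.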
Sequence of LMPTP-A (Low Molecular Weight Protein Tyrosine Phosphatase-A) enzyme (P24666 whole entry): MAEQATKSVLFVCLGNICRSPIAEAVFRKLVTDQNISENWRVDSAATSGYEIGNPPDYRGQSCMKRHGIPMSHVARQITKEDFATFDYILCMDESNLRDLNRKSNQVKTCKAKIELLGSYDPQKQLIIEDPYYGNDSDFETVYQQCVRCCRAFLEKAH
As to `COc1ccc(-c2cc(NCc3ccccc3)c3ccccc3n2)cc1` [Compound G75, [2-(4-methoxyphenyl)(4-quinolyl)]benzylamine], the IC50 (in general, the concentration that gives 50% inhibition) lay in the range of 801 to 5000 nM. For the compound `CN(C)Cc1ccc(Nc2cc(-c3ccc(C(F)(F)F)cc3C(F)(F)F)nc3ccccc23)cc1` [Compound I54, {[4-({2-[2,4-bis(trifluoromethyl)phenyl](4-quinolyl)}amino)phenyl]methyl}dimethylamine], the half-inhibitory concentration (IC50) was above 5000 nM.

With `COCc1ccc(-c2cc(NCCCN3CCCCC3)c3ccccc3n2)cc1` [Compound I135], the IC50 fell in the range of 200 to 800 nM. Next, “methyl 3-{4-[(3-piperidylpropyl)amino]-2-quinolyl}benzoate [Compound I155]”: 801 to 5000 nM; `O=C(NC1CC1)c1ccc(-c2cc(NCCCN3CCCCC3)c3ccccc3n2)cc1` [Compound I271]: 801 to 5000 nM; `COc1ccc(-c2cc(Nc3ccccc3CC3CCN(C)CC3)c3ccccc3n2)cc1` [Compound I37, [2-(4-methoxyphenyl)(4-quinolyl)]{2-[(1-methyl(4-piperidyl))methyl]phenyl}amine]: above 5000 nM. Next, `C[Si](C)(C)c1cccc(-c2cc(NCCCN3CCCCC3)c3ccccc3n2)c1` [Compound I145]: 801 to 5000 nM; `COc1ccc(-c2cc(Nc3cccc(CN(C)C)c3)c3ccccc3n2)cc1` [Compound G58, [(3-{[2-(4-methoxyphenyl)(4-quinolyl)]amino}phenyl)methyl]dimethylamine]: 200 to 800 nM. With `CC(=O)OCc1cccc(-c2cc(NCCCN3CCCCC3)c3ccccc3n2)c1` [Compound I79, 3-{4-[(3-piperidylpropyl)amino]-2-quinolyl}phenyl)methyl acetate], the IC50 was 801 to 5000 nM. The result for `COc1ccc(-c2cc(Nc3ccc(C#N)cc3)c3ccccc3n2)cc1` [Compound G47, 4-{[2-(4-methoxyphenyl)-4-quinolyl]amino}benzenecarbonitrile] reads 200 to 800 nM; that for `Fc1ccc(-c2cc(NCCCN3CCCCC3)c3ccccc3n2)c(F)c1F` [Compound I115], 801 to 5000 nM; that for `c1ccc2c(NCCCN3CCCCC3)cc(-c3ccsc3)nc2c1` [Compound I136], above 5000 nM. The result for `CCOC(=O)c1ccc(Nc2cc(-c3ccc(OC)cc3)nc3ccccc23)cc1` [Compound G45, ethyl 4-{[2-(4-methoxyphenyl)-4-quinolyl]amino}benzoate] reads above 5000 nM; that for `O=C(NCCO)c1ccc(-c2cc(NCCCN3CCCCC3)c3ccccc3n2)cc1` [Compound I227], 801 to 5000 nM; that for `NC(=O)c1ccc(-c2cc(Nc3cccc(CN4CCCC4)c3)c3ccccc3n2)cc1` [Compound I5, 4-(4-{[3-(pyrrolidinylmethyl)phenyl]amino}-2-quinolyl)benzamide], above 5000 nM. On to “[2-(2,4-dichlorophenyl)(4-quinolyl)](3-piperidylpropyl)amine [Compound I103]”, for which the IC50 was 801 to 5000 nM. The result for `Fc1cc(F)cc(-c2cc(NCCCN3CCCCC3)c3ccccc3n2)c1` [Compound I85] reads 801 to 5000 nM; that for `CN(C)c1cccc(-c2cc(NCCCN3CCCCC3)c3ccccc3n2)c1` [Compound I129], 801 to 5000 nM; that for `COc1ccc(-c2cc(Nc3ccc(Cl)cc3)c3ccccc3n2)cc1` [Compound G40, (4-chlorophenyl)[2-(4-methoxyphenyl)(4-quinolyl)]amine], 801 to 5000 nM. In the case of `FC(F)(F)c1ccc(C(F)(F)F)c(-c2cc(Nc3cccc(CC4CCNCC4)c3)c3ccccc3n2)c1` [Compound I41, {2-[2,5-bis(trifluoromethyl)phenyl](4-quinolyl)}[3-(4-piperidylmethyl)phenyl]amine], the half-maximal inhibitory concentration (IC50) lay in the range of 801 to 5000 nM. The result for `O=C(c1ccc(-c2cc(NCCCN3CCCCC3)c3ccccc3n2)cc1)N1CCOCC1` [Compound I234] reads 200 to 800 nM. Next, `c1ccc2c(NCCCN3CCCCC3)cc(-c3cncnc3)nc2c1` [Compound I143]: 801 to 5000 nM. The result for `NC(=O)c1ccc(-c2cc(Nc3cccc(CC4CCNCC4)c3)c3ccccc3n2)cc1` [Compound I3, 4-(4-{[3-(4-piperidylmethyl)phenyl]amino}-2-quinolyl)benzamide] reads 801 to 5000 nM; that for `CN(C)Cc1cc(CO)cc(Nc2cc(-c3cccc(Cl)c3)nc3ccccc23)c1` [Compound I13, (5-[(dimethylamino)methyl]-3-{[2-(3-chlorophenyl)(4-quinolyl)]amino}phenyl)methan-1-ol], 801 to 5000 nM. On to `COc1ccc(-c2cc(NCCc3ccc(C(F)(F)F)cc3)c3ccccc3n2)cc1` [Compound G86, [2-(4-methoxyphenyl)(4-quinolyl)]{2-[4-(trifluoromethyl)phenyl]ethyl}amine], for which the half-inhibitory concentration (IC50) is 801 to 5000 nM. As to `Fc1cccc(-c2cc(NCCCN3CCCCC3)c3ccccc3n2)n1` [Compound I97], the IC50 lay in the range of 801 to 5000 nM. The result for `N#Cc1cccc(Nc2cc(-c3ccccc3C(F)(F)F)nc3ccccc23)c1` [Compound G32, 3-[2-(2-Trifluoromethyl-phenyl)-quinolin-4-ylamino]-benzonitrile] reads 801 to 5000 nM; that for `Cn1ccc2cc(-c3cc(NCCCN4CCCCC4)c4ccccc4n3)ccc21` [Compound I109], 200 to 800 nM. Turning to `CN1CCCC1CCNc1cc(-c2ccc(C(F)(F)F)cc2C(F)(F)F)nc2ccccc12` (centres unmarked) [Compound I53, {2-[2,4-bis(trifluoromethyl)phenyl](4-quinolyl)}[2-(1-methylpyrrolidin-2-yl)ethyl]amine], the concentration for half-maximal inhibition (IC50) was above 5000 nM.

As to `FC(F)(F)c1cc(Cl)ccc1-c1cc(NCCCN2CCCCC2)c2ccccc2n1` [Compound I119], the IC50 was in the range of 801 to 5000 nM. With `COc1ccc(-c2cc(Nc3cccc(N(C)C)c3)c3ccccc3n2)cc1` [Compound I25, (3-{[2-(4-methoxyphenyl)(4-quinolyl)]amino}phenyl)dimethylamine], the 50% inhibitory concentration (IC50) was 801 to 5000 nM. The result for `CN(C)CCNc1cc(-c2ccccc2)nc2ccccc12` [Compound I183, dimethyl{2-[(2-phenyl(4-quinolyl))amino]ethyl}amine] reads above 5000 nM; that for `O=C(NCc1ccccc1)c1ccc(-c2cc(NCCCN3CCCCC3)c3ccccc3n2)cc1` [Compound I253], 200 to 800 nM. The result for `CCN(CC)CCCNc1cc(-c2ccc(C(N)=O)cc2)nc2ccccc12` [Compound I218, 4-(4-{[3-(diethylamino)propyl]amino}-2-quinolyl)benzamide] reads above 5000 nM; that for `Clc1cccc(-c2cc(Nc3ccc(CN4CCCCC4)cc3)c3ccccc3n2)c1` [Compound I11, [2-(3-chlorophenyl)(4-quinolyl)][4-(piperidylmethyl)phenyl]amine], 801 to 5000 nM. For `c1ccc2c(NCCCN3CCCCC3)cc(-c3ccc4ccsc4c3)nc2c1` [Compound I78], the IC50 lay in the range of 200 to 800 nM. Next, `O=C(NCC1CCNCC1)c1ccc(-c2cc(NCCCN3CCCCC3)c3ccccc3n2)cc1` [Compound I197]: 200 to 800 nM; `O=C(NCCCN1CCCCC1)c1ccc(-c2cc(NCCCN3CCCCC3)c3ccccc3n2)cc1` [Compound I198]: 200 to 800 nM; `c1ccc2c(NCCCN3CCCCC3)cc(-c3ccc(OC4CCCCO4)cc3)nc2c1` (centres unmarked) [Compound I1I3, [2-(4-(2H-3,4,5,6-tetrahydropyran-2-yloxy)phenyl)(4-quinolyl)](3-piperidylpropyl)amine]: 801 to 5000 nM. For `COc1ncc(-c2cc(NCCCN3CCCCC3)c3ccccc3n2)c(OC)n1` [Compound I141], the half-inhibitory concentration (IC50) fell in the range of 801 to 5000 nM.

Consider `COc1ccc(-c2cc(Nc3cccc(C#N)c3)c3ccccc3n2)cc1` [Compound G38, 3-[2-(4-Methoxy-phenyl)-quinolin-4-ylamino]-benzonitrile], for which the concentration for half-maximal inhibition (IC50) is 200 to 800 nM. Regarding `O=C(NC1CCCC1)c1ccc(-c2cc(NCCCN3CCCCC3)c3ccccc3n2)cc1` [Compound I249], the IC50 was in the range of 200 to 800 nM. For the compound `COc1ccc(-c2cc(NCCCN3CCCCC3)c3cc(Cl)ccc3n2)cc1` [Compound G27, [6-Chloro-2-(4-methoxy-phenyl)-quinolin-4-yl]-(3-piperidin-1-yl-propyl)-amine], the IC50 is above 5000 nM. The result for `CCN(CC)S(=O)(=O)c1ccc(C)c(-c2cc(NCCCN3CCCCC3)c3ccccc3n2)c1` [Compound I242] reads above 5000 nM.

Regarding `COc1ccc(-c2cc(NCCc3ccc(Cl)cc3)c3ccccc3n2)cc1` [Compound G84, [2-(4-chlorophenyl)ethyl][2-(4-methoxyphenyl)(4-quinolyl)]amine], the IC50 lay in the range of 801 to 5000 nM. Next, `CS(=O)(=O)c1ccc(-c2cc(NCCCN3CCCCC3)c3ccccc3n2)c(C(F)(F)F)c1` [Compound I121]: 801 to 5000 nM.

With `COc1ccc(-c2cc(NCc3ccccc3C(F)(F)F)c3ccccc3n2)cc1` [Compound G80, [2-(4-methoxyphenyl)(4-quinolyl)]{[2-(trifluoromethyl)phenyl]methyl}amine], the IC50 was 801 to 5000 nM. Take `c1ccc2c(NCCCN3CCCCC3)cc(-c3ccc(-c4nn[nH]n4)cc3)nc2c1` [Compound I205]: the IC50 lay within 801 to 5000 nM.

Consider `COc1ccc(-c2cc(Nc3cccnc3)c3ccccc3n2)cc1` [Compound G64], for which the half-maximal inhibitory concentration (IC50) was in the range of 801 to 5000 nM. `CN(C)c1ccc(-c2cc(NCCCN3CCCCC3)c3ccccc3n2)cc1` [Compound G10, [2-(4-Dimethylamino-phenyl)-quinolin-4-yl]-(3-piperidin-1-yl-propyl)-amine]: the half-maximal inhibitory concentration (IC50) was in the range of 801 to 5000 nM. With `NC(=O)c1ccc(-c2cc(NCCCN3CCCCC3)c3ccccc3n2)cc1F` [Compound I81], the IC50 lay within 200 to 800 nM. The result for `COc1ccc(-c2cc(Nc3ccc(F)cc3)c3ccccc3n2)cc1` [Compound G39, (4-fluorophenyl)[2-(4-methoxyphenyl)(4-quinolyl)]amine] reads 801 to 5000 nM; that for `COc1ccc(-c2cc(Nc3cncnc3)c3ccccc3n2)cc1` [Compound G66, [2-(4-methoxyphenyl)(4-quinolyl)]pyrimidin-5-ylamine], 801 to 5000 nM.

These data come from US10626094B2 (La Jolla Institute of Allergy & Immunology, priority 2014, dated 2020).
